In patent publication US20260356856A1, “KRAS G12S AND G12C INHIBITORS” (MIRATI THERAPEUTICS, INC., priority 2023, published 2026):

What was measured:
[1] = target: T1, KRas-mediated phosphorylation of ERK in H358 cells (Homo sapiens, UniProt P01116, G12C); test: Inhibition of KRas-mediated phosphorylation of ERK (HTRF), H358 cells; type: cell-based; conditions: HTRF pERK, 3 h incubation
T1 construct: pERK HTRF read-out

KRas WT = target: T2, KRas WT (Homo sapiens, UniProt P01116); test: KRas binding assay, TR-FRET displacement of Cy5 labelled tracer; conditions: 60-minute incubation at room temperature, 1% DMSO, pH 7.5
T2 construct: Biotinylated KRas (corresponding to amino acids 1-169, produced at Accelegan Inc.); biotin (biotinylated); purchased Accelegan Inc
T2 sequence (P01116 1-169 isoform P01116-2): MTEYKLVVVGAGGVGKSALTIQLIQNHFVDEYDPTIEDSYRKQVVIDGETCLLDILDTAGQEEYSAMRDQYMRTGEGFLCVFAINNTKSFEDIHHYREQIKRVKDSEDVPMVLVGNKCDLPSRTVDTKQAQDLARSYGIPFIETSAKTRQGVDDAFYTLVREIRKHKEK
In short: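 IC50 came from fitting POC values with a four-parameter equation. Signal was read after one hour at room temperature. Protein was biotin-tagged KRas 1-169 captured by terbium streptavidin, with compound in 1% DMSO (final).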

KRas G12S = target: T3, KRas G12S (Homo sapiens, UniProt P01116, G12S); test: as above; conditions: 60-minute incubation at room temperature, 1% DMSO, pH 7.5
T3 construct: Biotinylated KRas (corresponding to amino acids 1-169, produced at Accelegan Inc.); biotin (biotinylated); purchased Accelegan Inc
T3 sequence (P01116 1-169 isoform P01116-2 G12S): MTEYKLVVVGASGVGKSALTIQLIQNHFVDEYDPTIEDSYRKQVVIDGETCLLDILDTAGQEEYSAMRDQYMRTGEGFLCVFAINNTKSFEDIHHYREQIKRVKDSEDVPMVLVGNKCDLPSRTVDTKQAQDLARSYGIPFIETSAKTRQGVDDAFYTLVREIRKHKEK
In short: (§1)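 Final conditions: 1% DMSO, pH 7.5 HEPES buffer, 60 min, room temperature. Protein: biotin-KRas 1-169 with terbium streptavidin. Output: IC50, four-parameter fit of POC.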

KRas G12C = target: T4, KRas G12C (Homo sapiens, UniProt P01116, G12C); test: as above; conditions: 60-minute incubation at room temperature, 1% DMSO, pH 7.5
T4 construct: Biotinylated KRas (corresponding to amino acids 1-169, produced at Accelegan Inc.); biotin (biotinylated); purchased Accelegan Inc
T4 sequence (P01116 1-169 isoform P01116-2 G12C): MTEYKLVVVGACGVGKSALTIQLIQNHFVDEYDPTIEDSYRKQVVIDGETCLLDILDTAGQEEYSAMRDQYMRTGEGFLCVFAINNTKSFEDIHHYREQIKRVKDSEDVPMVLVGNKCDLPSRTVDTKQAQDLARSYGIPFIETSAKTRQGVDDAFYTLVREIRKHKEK
In short: as §1

[2] = target: T5, KRas-mediated phosphorylation of ERK in A549 cells (Homo sapiens, UniProt P01116, G12S); test: Inhibition of KRas-mediated phosphorylation of ERK (HTRF), A549 cells; type: cell-based; conditions: HTRF pERK, 3 h incubation
T5 construct: pERK HTRF read-out
T5 sequence (P01116 1-188 isoform P01116-2 G12S): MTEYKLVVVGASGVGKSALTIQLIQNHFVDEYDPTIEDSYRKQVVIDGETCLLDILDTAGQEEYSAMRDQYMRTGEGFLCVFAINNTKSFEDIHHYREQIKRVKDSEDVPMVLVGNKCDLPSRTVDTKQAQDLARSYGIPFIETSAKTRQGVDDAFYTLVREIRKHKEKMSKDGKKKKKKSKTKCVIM

[3] = target: T6, KRas-mediated phosphorylation of ERK in MKN1 cells (Homo sapiens, UniProt P01116); test: Inhibition of KRas-mediated phosphorylation of ERK (HTRF), MKN1 cells; type: cell-based; conditions: MKN1 cells (KRas WT); HTRF pERK; 3 h incubation
T6 construct: pERK HTRF read-out
T6 sequence (P01116 1-188 isoform P01116-2): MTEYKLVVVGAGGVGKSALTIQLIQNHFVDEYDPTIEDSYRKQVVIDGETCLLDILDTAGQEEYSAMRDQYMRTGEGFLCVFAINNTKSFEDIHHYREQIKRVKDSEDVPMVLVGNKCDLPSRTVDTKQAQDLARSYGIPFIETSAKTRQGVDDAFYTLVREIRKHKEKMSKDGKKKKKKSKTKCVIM
Procedure: Inhibition of KRas Phosphorylation of ERK (HTRF) by Exemplary Compounds of Formula (Ia) or (Ib)
Cisbio HTRF Advanced pERK Assay Catalog #64AERPEH • Cells: MKN1, PSN1 • Procedure: • 1. Day 1: Seed 6,000 cells/well −25 μl/well in 384-well white solid bottom plate; RPM1_10% FBS. Incubate overnight at 37 °C/5% CO2. • 2.

T1 sequence (P01116 1-188 isoform P01116-2 G12C): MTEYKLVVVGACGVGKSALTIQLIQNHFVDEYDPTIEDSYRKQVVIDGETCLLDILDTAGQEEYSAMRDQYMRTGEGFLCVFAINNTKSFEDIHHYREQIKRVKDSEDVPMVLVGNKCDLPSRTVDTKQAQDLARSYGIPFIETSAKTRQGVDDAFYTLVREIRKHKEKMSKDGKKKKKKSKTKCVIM

SMILES	IC50 [1] [nM]	IC50 (KRas WT) [nM]	IC50 (KRas G12S) [nM]	IC50 (KRas G12C) [nM]	IC50 [2] [nM]	IC50 [3] [nM]
C=Cc1ccn(C(=O)C2CCN(c3nc(OC[C@@]45CCCN4C[C@H](F)C5)nc4c(F)c(-c5cc(O)cc6ccc(F)c(CC)c56)ncc34)CC2)n1 [Example 66, (1-(7-(8-ethyl-7-fluoro-3-hydroxynaphthalen-1-yl)-8-fluoro-2-(((2R,7aS)-2-fluorotetrahydro-1H-pyrrolizin-7a(5H)-yl)methoxy)pyrido[4,3-d]pyrimidin-4-yl)piperidin-4-yl)(3-vinyl-1H-pyrazol-1-yl)methanone]	9020	154	26	57	141	5200
C#Cc1c(F)ccc2cc(O)cc(-c3ncc4c(N5CCC(C(=O)n6ccc(C)n6)CC5)nc(OC[C@@]56CCCN5C[C@H](F)C6)nc4c3F)c12 [Example 67, (1-(7-(8-ethynyl-7-fluoro-3-hydroxynaphthalen-1-yl)-8-fluoro-2-(((2R,7aS)-2-fluorotetrahydro-1H-pyrrolizin-7a(5H)-yl)methoxy)pyrido[4,3-d]pyrimidin-4-yl)piperidin-4-yl)(3-methyl-1H-pyrazol-1-yl)methanone]	3080	15	17	51	113	3290
CCc1c(F)ccc2cc(O)cc(-c3ncc4c(N5CCC(C(=O)n6ccc(C)n6)CC5)nc(OC[C@@]56CCCN5C/C(=C\F)C6)nc4c3F)c12 [Example 70, (S,Z)-(1-(7-(8-ethyl-7-fluoro-3-hydroxynaphthalen-1-yl)-8-fluoro-2-((2-(fluoromethylene)tetrahydro-1H-pyrrolizin-7a(5H)-yl)methoxy)pyrido[4,3-d]pyrimidin-4-yl)piperidin-4-yl)(3-methyl-1H-pyrazol-1-yl)methanone]	7290	27	17	31	85	5100
CCc1c(F)ccc2cc(O)cc(-c3ncc4c(N5CCC(C(=O)n6cc(C(C)(C)C)cn6)CC5)nc(OC[C@@]56CCCN5C[C@H](F)C6)nc4c3F)c12 [Example 72, (4-(tert-butyl)-1H-pyrazol-1-yl)(1-(7-(8-ethyl-7-fluoro-3-hydroxynaphthalen-1-yl)-8-fluoro-2-(((2R,7aS)-2-fluorotetrahydro-1H-pyrrolizin-7a(5H)-yl)methoxy)pyrido[4,3-d]pyrimidin-4-yl)piperidin-4-yl)methanone]	7290	572	274	408	748	3330
CCc1c(F)ccc2cc(O)cc(-c3ncc4c(N5CCC(C(=O)n6nc(C)c(C)c6C)CC5)nc(OC[C@@]56CCCN5C[C@H](F)C6)nc4c3F)c12 [Example 73, (1-(7-(8-ethyl-7-fluoro-3-hydroxynaphthalen-1-yl)-8-fluoro-2-(((2R,7aS)-2-fluorotetrahydro-1H-pyrrolizin-7a(5H)-yl)methoxy)pyrido[4,3-d]pyrimidin-4-yl)piperidin-4-yl)(3,4,5-trimethyl-1H-pyrazol-1-yl)methanone]	4500	1080	2960	888	8480	5570
CCc1c(F)ccc2cc(O)cc(-c3ncc4c(N5CCC(C(=O)n6nc(C)cc6C)CC5)nc(OC[C@@]56CCCN5C[C@H](F)C6)nc4c3F)c12 [Example 74, (3,5-dimethyl-1H-pyrazol-1-yl)(1-(7-(8-ethyl-7-fluoro-3-hydroxynaphthalen-1-yl)-8-fluoro-2-(((2R,7aS)-2-fluorotetrahydro-1H-pyrrolizin-7a(5H)-yl)methoxy)pyrido[4,3-d]pyrimidin-4-yl)piperidin-4-yl)methanone]	2290	798	885	578	464	3330
CCc1c(F)ccc2cc(O)cc(-c3ncc4c(N5CCC(C(=O)n6ccc(C(C)(C)C)n6)CC5)nc(OC[C@@]56CCCN5C[C@H](F)C6)nc4c3F)c12 [Example 75, (3-(tert-butyl)-1H-pyrazol-1-yl)(1-(7-(8-ethyl-7-fluoro-3-hydroxynaphthalen-1-yl)-8-fluoro-2-(((2R,7aS)-2-fluorotetrahydro-1H-pyrrolizin-7a(5H)-yl)methoxy)pyrido[4,3-d]pyrimidin-4-yl)piperidin-4-yl)methanone]	3110	378	346	234	312	1390

Other lines, results leading:

IC50 [1] [nM]	IC50 (KRas WT) [nM]	IC50 (KRas G12S) [nM]	IC50 (KRas G12C) [nM]	IC50 [2] [nM]	IC50 [3] [nM]	SMILES
415	17	14	28	> 10000	266	CCc1c(F)ccc2cc(O)cc(-c3ncc4c(N5CCCC(C(=O)n6ccc(C)n6)C5)nc(OC[C@@]56CCCN5C[C@H](F)C6)nc4c3F)c12 (stereo partly drawn) [Example 65, (1-(7-(8-ethyl-7-fluoro-3-hydroxynaphthalen-1-yl)-8-fluoro-2-(((2R,7aS)-2-fluorotetrahydro-1H-pyrrolizin-7a(5H)-yl)methoxy)pyrido[4,3-d]pyrimidin-4-yl)piperidin-3-yl)(3-methyl-1H-pyrazol-1-yl)methanone]
34	10	6	5	77	12	CCc1c(F)ccc2cc(O)cc(-c3ncc4c(N5CCCCC(C(=O)n6ccc(C)n6)C5)nc(OC[C@@]56CCCN5C[C@H](F)C6)nc4c3F)c12 (stereo partly drawn) [Example 68, (1-(7-(8-ethyl-7-fluoro-3-hydroxynaphthalen-1-yl)-8-fluoro-2-(((2R,7aS)-2-fluorotetrahydro-1H-pyrrolizin-7a(5H)-yl)methoxy)pyrido[4,3-d]pyrimidin-4-yl)azepan-3-yl)(3-methyl-1H-pyrazol-1-yl)methanone]
1120	6	124	79	4810	31	CCc1c(F)ccc2cc(O)cc(-c3ncc4c(N5CCCN(C(=O)n6ccc(C)n6)CC5)nc(OC[C@@]56CCCN5C[C@H](F)C6)nc4c3F)c12 [Example 69, (4-(7-(8-ethyl-7-fluoro-3-hydroxynaphthalen-1-yl)-8-fluoro-2-(((2R,7aS)-2-fluorotetrahydro-1H-pyrrolizin-7a(5H)-yl)methoxy)pyrido[4,3-d]pyrimidin-4-yl)-1,4-diazepan-1-yl)(3-methyl-1H-pyrazol-1-yl)methanone]
930	2090	2500	1690	2030	8470	CCc1c(F)ccc2cc(O)cc(-c3ncc4c(N5CC[C@@H](C(=O)n6ccc(C)n6)[C@H](C)C5)nc(OC[C@@]56CCCN5C[C@H](F)C6)nc4c3F)c12 [Example 71, ((3S,4R)-1-(7-(8-ethyl-7-fluoro-3-hydroxynaphthalen-1-yl)-8-fluoro-2-(((2R,7aS)-2-fluorotetrahydro-1H-pyrrolizin-7a(5H)-yl)methoxy)pyrido[4,3-d]pyrimidin-4-yl)-3-methylpiperidin-4-yl)(3-methyl-1H-pyrazol-1-yl)methanone]
4720	166	150	124	223	2060	CCc1c(F)ccc2cc(O)cc(-c3ncc4c(N5CCC(C(=O)n6ccc(C(C)C)n6)CC5)nc(OC[C@@]56CCCN5C[C@H](F)C6)nc4c3F)c12 [Example 76, (1-(7-(8-ethyl-7-fluoro-3-hydroxynaphthalen-1-yl)-8-fluoro-2-(((2R,7aS)-2-fluorotetrahydro-1H-pyrrolizin-7a(5H)-yl)methoxy)pyrido[4,3-d]pyrimidin-4-yl)piperidin-4-yl)(3-isopropyl-1H-pyrazol-1-yl)methanone]
1360	161	87	159	> 10000	4560	CCc1c(F)ccc2cc(O)cc(-c3ncc4c(N5CCOCC(C(=O)n6ccc(C)n6)C5)nc(OC[C@@]56CCCN5C[C@H](F)C6)nc4c3F)c12 (stereo partly drawn) [Example 77, (4-(7-(8-ethyl-7-fluoro-3-hydroxynaphthalen-1-yl)-8-fluoro-2-(((2R,7aS)-2-fluorotetrahydro-1H-pyrrolizin-7a(5H)-yl)methoxy)pyrido[4,3-d]pyrimidin-4-yl)-1,4-oxazepan-6-yl)(3-methyl-1H-pyrazol-1-yl)methanone]
23	246	594	26	785	1450	CCc1c(F)ccc2cc(O)cc(-c3ncc4c(N5CC[C@@H](C(=O)n6ccc(C)n6)[C@@H](C)C5)nc(OC[C@@]56CCCN5C[C@H](F)C6)nc4c3F)c12 [Example 79, ((3R,4R)-1-(7-(8-ethyl-7-fluoro-3-hydroxynaphthalen-1-yl)-8-fluoro-2-(((2R,7aS)-2-fluorotetrahydro-1H-pyrrolizin-7a(5H)-yl)methoxy)pyrido[4,3-d]pyrimidin-4-yl)-3-methylpiperidin-4-yl)(3-methyl-1H-pyrazol-1-yl)methanone]
